Assay results as given in PubChem BioAssay AID1745844 (Carcinogenic Potency Database (CPDB), 2022).
Activity calls are given as the source filed them. No rule for the calls is given here.

Test system: rodent lifetime carcinogenesis bioassay, tumor incidence TD50
Assay: carcinogenic potency in animals, long-term in vivo studies, CPDB compilation (AID 1745844)
[1] = rat, strain Fischer 344, females, in feed, site: any site (literature study), lesion: several types, types named in the paper, dosed 103 weeks, study length 104 weeks

With `Nc1cc(S(=O)(=O)[O-])cc2cc(S(=O)(=O)[O-])c(N=Nc3ccc(-c4ccc(N=Nc5c(S(=O)(=O)[O-])cc6cc(S(=O)(=O)[O-])cc(N)c6c5O)c(O)c4)cc3O)c(O)c12.[Cu].[Cu].[Na+].[Na+].[Na+].[Na+]` as the molecule, how does the TD50 (mouse, strain B6C3F1, females, in feed, site: any site (literature study), lesion: several types, types named in the paper, dosed 103 weeks, study length 106 weeks) read?
Its TD50 is 1530 mg/kg/day.

And the TD50 (mouse, strain B6C3F1, females, in feed, site: liver, lesion: hepatoblastoma + hepatocellular carcinoma, dosed 103 weeks, study length 106 weeks)?
The TD50 was 4000 mg/kg/day.

And the TD50 (mouse, strain B6C3F1, females, in feed, site: liver, lesion: hepatocellular adenoma + hepatoblastoma + hepatocellular carcinoma, dosed 103 weeks, study length 106 weeks)?
Its TD50 is 711 mg/kg/day.

And the TD50 (mouse, strain B6C3F1, females, in feed, site: liver, lesion: hepatocellular adenoma + hepatocellular carcinoma, dosed 103 weeks, study length 106 weeks)?
The TD50 was 711 mg/kg/day.

And the TD50 (mouse, strain B6C3F1, females, in feed, site: liver, lesion: hepatocellular adenoma, dosed 103 weeks, study length 106 weeks)?
Its TD50 is 774 mg/kg/day.

And the TD50 (mouse, strain B6C3F1, females, in feed, site: liver, lesion: hepatocellular carcinoma, dosed 103 weeks, study length 106 weeks)?
The TD50 was 4570 mg/kg/day.

And the TD50 (mouse, strain B6C3F1, males, in feed, site: any site (literature study), lesion: several types, types named in the paper, dosed 103 weeks, study length 105 weeks)?
The TD50 was 1910 mg/kg/day.

What about the TD50 (mouse, strain B6C3F1, males, in feed, site: jejunum, lesion: carcinoma, dosed 103 weeks, study length 105 weeks) of the same molecule?
Its TD50 is 20300 mg/kg/day.

What about the carcinogen call (mouse, strain B6C3F1, males, in feed, site: kidney, lesion: tubule adenoma + tubule carcinoma, dosed 103 weeks, study length 105 weeks) of the same molecule?
Its carcinogen call is “e”.

And the TD50 (mouse, strain B6C3F1, males, in feed, site: kidney, lesion: tubule adenoma, dosed 103 weeks, study length 105 weeks)?
Its TD50 is 195000 mg/kg/day.

And the carcinogen call (mouse, strain B6C3F1, males, in feed, site: kidney, lesion: tubule carcinoma, dosed 103 weeks, study length 105 weeks)?
Its carcinogen call is “e”.

And the TD50 (mouse, strain B6C3F1, males, in feed, site: liver, lesion: hepatocellular adenoma + hepatoblastoma + hepatocellular carcinoma, dosed 103 weeks, study length 105 weeks)?
Its TD50 is 1080 mg/kg/day.

And the TD50 (mouse, strain B6C3F1, males, in feed, site: liver, lesion: hepatocellular adenoma + hepatocellular carcinoma, dosed 103 weeks, study length 105 weeks)?
Its TD50 is 1080 mg/kg/day.

And the TD50 (mouse, strain B6C3F1, males, in feed, site: liver, lesion: hepatocellular adenoma, dosed 103 weeks, study length 105 weeks)?
Its TD50 is 1210 mg/kg/day.

What about the TD50 (mouse, strain B6C3F1, males, in feed, site: liver, lesion: hepatocellular carcinoma, dosed 103 weeks, study length 105 weeks) of the same molecule?
Its TD50 is 2990 mg/kg/day.

What about the TD50 [1] of the same molecule?
The TD50 was 653 mg/kg/day.

And the TD50 (rat, strain Fischer 344, females, in feed, site: uterus, lesion: endometrial stromal polyp, dosed 103 weeks, study length 104 weeks)?
Its TD50 is 83.5 mg/kg/day (inactive).

What about the TD50 (rat, strain Fischer 344, males, in feed, site: any site (literature study), lesion: several types, types named in the paper, dosed 103 weeks, study length 104 weeks) of the same molecule?
The TD50 was 921 mg/kg/day.

And the TD50 (rat, strain Fischer 344, males, in feed, site: forestomach, lesion: squamous-cell carcinoma + squamous-cell papilloma, dosed 103 weeks, study length 104 weeks)?
The TD50 was 2350 mg/kg/day.

What about the carcinogen call (rat, strain Fischer 344, males, in feed, site: forestomach, lesion: squamous-cell carcinoma, dosed 103 weeks, study length 104 weeks) of the same molecule?
Its carcinogen call is “e”.

What about the TD50 (rat, strain Fischer 344, males, in feed, site: forestomach, lesion: squamous-cell papilloma, dosed 103 weeks, study length 104 weeks) of the same molecule?
The TD50 was 3140 mg/kg/day.

And the TD50 (rat, strain Fischer 344, males, in feed, site: liver, lesion: hepatocellular adenoma + hepatoblastoma + hepatocellular carcinoma, dosed 103 weeks, study length 104 weeks)?
The TD50 was 5050 mg/kg/day.

What about the TD50 (rat, strain Fischer 344, males, in feed, site: palate, lesion: basosquamous tumor, benign + squamous-cell carcinoma + squamous-cell papilloma, dosed 103 weeks, study length 104 weeks) of the same molecule?
Its TD50 is 1380 mg/kg/day.

What about the TD50 (rat, strain Fischer 344, males, in feed, site: palate, lesion: basosquamous tumor, benign, dosed 103 weeks, study length 104 weeks) of the same molecule?
The TD50 was 11500 mg/kg/day.

What about the TD50 (rat, strain Fischer 344, males, in feed, site: palate, lesion: squamous-cell carcinoma + squamous-cell papilloma, dosed 103 weeks, study length 104 weeks) of the same molecule?
Its TD50 is 1570 mg/kg/day.

And the TD50 (rat, strain Fischer 344, males, in feed, site: palate, lesion: squamous-cell carcinoma, dosed 103 weeks, study length 104 weeks)?
Its TD50 is 9510 mg/kg/day.

What about the TD50 (rat, strain Fischer 344, males, in feed, site: palate, lesion: squamous-cell papilloma, dosed 103 weeks, study length 104 weeks) of the same molecule?
Its TD50 is 1920 mg/kg/day.

Which results are given for `CC(=O)[O-].CC(=O)[O-].CCC(=O)c1ccc(F)c([C@@H]2C[C@@H]2NC(=O)Nc2ccc(C#N)cn2)c1O.[Zn+2]`?
TD50 (hamster, strain Syrian Golden, females, in feed, site: any site (literature study), lesion: several types, types named in the paper, dosed 78 weeks, study length 78 weeks): 177000 mg/kg/day (inactive); carcinogen call (hamster, strain Syrian Golden, females, in feed, site: liver, lesion: hemangioma, dosed 78 weeks, study length 78 weeks): negative (inactive); TD50 (hamster, strain Syrian Golden, males, in feed, site: any site (literature study), lesion: several types, types named in the paper, dosed 106 weeks, study length 111 weeks): 54100 mg/kg/day (inactive); carcinogen call (hamster, strain Syrian Golden, males, in feed, site: liver, lesion: hemangioma, dosed 106 weeks, study length 111 weeks): negative (inactive); TD50 (rat, strain MRC, females, in feed, site: peripheral nervous system, lesion: one or several types, types not named, dosed 143 weeks, study length 146 weeks): 35400 mg/kg/day (inactive); carcinogen call (rat, strain MRC, females, in feed, site: skin, lesion: one or several types, types not named, dosed 143 weeks, study length 146 weeks): negative (inactive); carcinogen call (rat, strain MRC, males, in feed, site: any site (literature study), lesion: several types, types named in the paper, dosed 139 weeks, study length 141 weeks): negative (inactive)

Which results are given for `C=CCOC(=O)CC(C)C`?
TD50 (mouse, strain B6C3F1, females, by gavage, site: all sites, lesion: malignant lymphoma, histiocytic type + malignant lymphoma, mixed type + malignant lymphoma, lymphocytic type, dosed 103 weeks, study length 106 weeks): 62.8 mg/kg/day; TD50 (mouse, strain B6C3F1, females, by gavage, site: all sites, lesion: malignant lymphoma, histiocytic type, dosed 103 weeks, study length 106 weeks): 238 mg/kg/day; TD50 (mouse, strain B6C3F1, females, by gavage, site: all sites, lesion: malignant lymphoma, mixed type, dosed 103 weeks, study length 106 weeks): 102 mg/kg/day; TD50 (mouse, strain B6C3F1, females, by gavage, site: any site (literature study), lesion: several types, types named in the paper, dosed 103 weeks, study length 106 weeks): 65.5 mg/kg/day; TD50 (mouse, strain B6C3F1, females, by gavage, site: lung, lesion: alveolar/bronchiolar adenoma + alveolar/bronchiolar carcinoma, dosed 103 weeks, study length 106 weeks): 4450 mg/kg/day; TD50 (mouse, strain B6C3F1, males, by gavage, site: any site (literature study), lesion: several types, types named in the paper, dosed 103 weeks, study length 106 weeks): 206 mg/kg/day; TD50 (mouse, strain B6C3F1, males, by gavage, site: gastric mucosa, lesion: squamous-cell papilloma, dosed 103 weeks, study length 106 weeks): 295 mg/kg/day (inactive); TD50 (rat, strain Fischer 344, females, by gavage, site: any site (literature study), lesion: several types, types named in the paper, dosed 103 weeks, study length 106 weeks): 43.5 mg/kg/day (inactive); TD50 (rat, strain Fischer 344, males, by gavage, site: all sites, lesion: monocytic leukemia + malignant lymphoma, histiocytic type, dosed 103 weeks, study length 106 weeks): 123 mg/kg/day; TD50 (rat, strain Fischer 344, males, by gavage, site: all sites, lesion: monocytic leukemia, dosed 103 weeks, study length 106 weeks): 149 mg/kg/day; TD50 (rat, strain Fischer 344, males, by gavage, site: any site (literature study), lesion: several types, types named in the paper, dosed 103 weeks, study length 106 weeks): 50.5 mg/kg/day; TD50 (rat, strain Fischer 344, males, by gavage, site: liver, lesion: hepatocellular adenoma + hepatocellular carcinoma + neoplastic nodule, dosed 103 weeks, study length 106 weeks): 264 mg/kg/day; TD50 (rat, strain Fischer 344, males, by gavage, site: preputial gland, lesion: adenoma, NOS + carcinoma, NOS + squamous-cell carcinoma, dosed 103 weeks, study length 106 weeks): 136 mg/kg/day

Which carcinogen call (mouse, strain B6C3F1, females, in feed, site: any site (literature study), lesion: several types, types named in the paper, dosed 78 weeks, study length 91 weeks) does the source give for `O=C(Nc1ccc([N+](=O)[O-])cc1Cl)c1cc(Cl)ccc1O` here?
Its carcinogen call is “negative (inactive)”.

And the TD50 (mouse, strain B6C3F1, males, in feed, site: any site (literature study), lesion: several types, types named in the paper, dosed 78 weeks, study length 91 weeks)?
Its TD50 is 175 mg/kg/day.

And the TD50 (rat, strain Osborne-Mendel, females, in feed, site: any site (literature study), lesion: several types, types named in the paper, dosed 78 weeks, study length 110 weeks)?
Its TD50 is 2070 mg/kg/day.

What about the TD50 (rat, strain Osborne-Mendel, females, in feed, site: liver, lesion: hepatocellular adenoma + hepatocellular carcinoma + neoplastic nodule, dosed 78 weeks, study length 110 weeks) of the same molecule?
Its TD50 is 13300 mg/kg/day.

What about the TD50 (rat, strain Osborne-Mendel, females, in feed, site: thyroid gland, lesion: c-cell adenoma + c-cell carcinoma, dosed 78 weeks, study length 110 weeks) of the same molecule?
Its TD50 is 6670 mg/kg/day.

And the TD50 (rat, strain Osborne-Mendel, females, in feed, site: uterus, lesion: endometrial stromal polyp, dosed 78 weeks, study length 110 weeks)?
The TD50 was 5060 mg/kg/day (inactive).

What about the carcinogen call (rat, strain Osborne-Mendel, males, in feed, site: any site (literature study), lesion: several types, types named in the paper, dosed 78 weeks, study length 110 weeks) of the same molecule?
Its carcinogen call is “negative (inactive)”.

For `COC(=O)[C@H]1[C@H]2C[C@@H]3c4[nH]c5cc(OC)ccc5c4CCN3C[C@H]2C[C@@H](OC(=O)c2cc(OC)c(OC)c(OC)c2)[C@@H]1OC`, which TD50 (mouse, strain B6C3F1, females, in feed, site: any site (literature study), lesion: several types, types named in the paper, dosed 103 weeks, study length 104 weeks) is on record?
The TD50 was 6.42 mg/kg/day.

And the TD50 (mouse, strain B6C3F1, females, in feed, site: lung, lesion: alveolar/bronchiolar adenoma + alveolar/bronchiolar carcinoma, dosed 103 weeks, study length 104 weeks)?
Its TD50 is 54.5 mg/kg/day.

What about the TD50 (mouse, strain B6C3F1, females, in feed, site: mammary gland, lesion: all tumors, dosed 103 weeks, study length 104 weeks) of the same molecule?
The TD50 was 3.58 mg/kg/day.

What about the TD50 (mouse, strain B6C3F1, males, in feed, site: liver, lesion: hepatocellular adenoma + hepatocellular carcinoma + neoplastic nodule, dosed 103 weeks, study length 104 weeks) of the same molecule?
The TD50 was 5.46 mg/kg/day.

What about the TD50 (mouse, strain B6C3F1, males, in feed, site: seminal vesicle, lesion: undifferentiated carcinoma, dosed 103 weeks, study length 104 weeks) of the same molecule?
Its TD50 is 8.39 mg/kg/day.

And the TD50 (mouse, strain C3H (MTV+), females, in feed, site: mammary gland, lesion: adenocarcinoma, dosed 104 weeks, study length 104 weeks)?
The TD50 was 0.0342 mg/kg/day.

What about the TD50 [1] of the same molecule?
The TD50 was 0.727 mg/kg/day (inactive).

And the TD50 (rat, strain Fischer 344, males, in feed, site: adrenal gland, lesion: pheochromocytoma + pheochromocytoma, malignant, dosed 103 weeks, study length 104 weeks)?
Its TD50 is 0.306 mg/kg/day.

What about the TD50 (rat, strain Fischer 344, males, in feed, site: liver, lesion: hepatocellular adenoma + hepatocellular carcinoma + neoplastic nodule, dosed 103 weeks, study length 104 weeks) of the same molecule?
The TD50 was 6.77 mg/kg/day.

And the carcinogen call (rat, strain Wistar, females, in feed, site: mammary gland, lesion: fibroadenoma, dosed 75 weeks, study length 75 weeks)?
Its carcinogen call is “negative (inactive)”.

And the carcinogen call (rat, strain Wistar, females, in feed, site: pituitary gland, lesion: several types, types named in the paper, dosed 75 weeks, study length 75 weeks)?
The carcinogen call was “negative (inactive)”.

What about the TD50 (rat, strain Wistar, males, in feed, site: pituitary gland, lesion: adenoma, dosed 75 weeks, study length 75 weeks) of the same molecule?
Its TD50 is 38.3 mg/kg/day (inactive).
